# Where two headings read alike, the source gives them in different places. Where no end group is shown, it is not given here.
# Assays:
# [1] = test system: uninfected PHA-P-activated PBMC; assay: Cytotoxicity, MTT assay in uninfected PBMC; format: cell-based
# Protocol: The anti-HIV activities of the peptides were assayed according to the methods described in Roisin et al. (2004). Phytohemagglutinin-P(PHA-P)-activated peripheral blood mononuclear cells (PBMC) treated by increasing concentrations of peptide (from 100 to 0.1 nM), one hour later, were infected with hundred 50% tissue culture infectious doses (TCID50) per 100,000 cells of the HIV-1-LAI strain (Barre-Sinoussi et al., 1983). This virus was amplified in vitro on PHA-P-activated PBMC. Viral stock was titrated using PHA-P-activated PBMC, and 50% TCID50 were calculated using Kärber's formula (Kärber, 1931). Samples were maintained throughout the culture, and cell supernatants were collected at day 7 post-infection and stored at −20° C. Viral replication was measured by quantifying reverse transcriptase (RT) activity in cell culture supernatants. In parallel, cytotoxicity of the compounds was evaluated in uninfected PHA-P-activated PBMC by colorimetric 3-(4-5 dimethylthiazol-2-yl)2,5diphenyl tetrazolium bromite (MTT) assay on day 7 (as described in Mossmann, 1983). Experiments were performed in triplicate and repeated with another blood donor. […]
# HIV-1 RT [2] = biological target: T1, HIV-1 RT (Human immunodeficiency virus type 1 group M subtype B, UniProt P03366); assay: RT dissociation kinetics with bis-ANS, stopped flow; conditions: read-out: dissociation rate constant kdis of RT
# T1 construct: The heterodimeric p66/p51 RT was eluted with an imidazole gradient; p66 and p51 derived from p66 by proteolytic cleavage of the C-terminal RNAse H domain; made in house; host or cells: E. coli (M15 for the His-tagged subunits)
# Protocol: Dissociation kinetics of HIV-1 RT were monitored by using 4,4′-Bis(1-anilinonaphthalene 8-sulfonate (bis-ANS) as extrinsic probe. Changes in bis-ANS fluorescence provide a good signal to probe variation in the exposure of the hydrophobic regions associated to RT dissociation in a time-dependent manner. 0.5 μM of RT was dissociated in presence of 0.8 μM of bis-ANS, by adding 10% acetonitrile in the absence or in the presence of 10 μM PAW. Kinetics of dissociation were monitored by following fluorescence resonance energy transfer between tryptophan residues of RT and bis-ANS. Excitation of RT-Trp residues was performed at 290 nm and the increase of bis-ANS fluorescence emission at 490 nm was detected through a 420 nm cut-off filter. Data acquisition and analysis were performed using KinetAsyst 3 software (Hi-Tech Scientific, Salisbury, England-UK) and traces were fitted according to a single exponential equation.
# HeLa cells = assay: Cellular uptake of FITC-labelled peptide, fluorescence microscopy; format: cell-based; conditions: for entry of free peptide into cells: peptide alone, without Pep-1
# Protocol: HeLa cells were cultured in Dulbecco's modified Eagle's medium (DMEM) supplemented with 10% fetal calf serum at 37° C. in a humidified atmosphere containing 5% CO2.). H9 cell lines (ATCC number: HTB-176) were stably transfected with pNL4.3 V−R+plasmid (AIDS Research Reference Reagent Program, National Institutes of Health (NIH), USA) and therefore expressed in a constitutive manner all HIV-1 proteins but Env encoded proteins. They were cultured in RPMI-1640 medium supplemented with 2 mM glutamine, 10% (w/v) foetal calf serum (FCS), 1% antibiotics (streptomycin […], penicillin, 10 000 IU/ml), as well as G418 1 mg/ml. Cells were grown on glass coverslips to 75% confluency, then transfected with pcDNA3-p66RT plasmid (this plasmid contains the 66 subunit of HIV-1 Reverse Transcriptase cloned in pcDNA3.1 (+) vector (Invitrogen, USA), using HindIII and BamHI restriction site) using Lipofectamine 2000 reagent according to manufacturer' instructions (Invitrogen). Hela cells were subsequently cultured for 32 h, before incubation with FITC-PAW or FITC-PAW/Pep-1 (complex obtained at a molar ratio 1/10) for 1 h. Coverslips were extensively rinsed with PBS and cells were fixed in 4% paraformaldehyde for […] and permeabilized in 0.2% Triton. After saturation in PBS supplemented with bovine serum albumine 1% for 1 h, cells were incubated overnight with monoclonal 8C4 anti-HIV-1 RT antibody (AIDS Research Reference Reagent Program, NIH) (diluted 1:100 in PBS-BSA 1%), followed by Alexa-555 anti-mouse (Molecular Probes).
# Immunofluorescence detection of HIV-1 RT and FITC-PAW was performed by epifluorescence microscopy using a PL APO 1.4 oil PH3 objective on a LEICA DMRA 1999 microscope. 3D reconstitution of the 20 frames realized from z stacking was performed using Imaris 6.0 software.
# Cells were grown on acid-treated glass coverslips to 60% confluence. Once rinsed with PBS, cells were overlaid with preformed complexes and incubated for 40 minutes at 37° C. Cells were then rinsed twice with PBS and fixed […] at Room Temperature) (RT° in Paraformaldehyde 4%, and washed three times in PBS+2% BSA. They were then permeabilised by incubation 10 min RT° in PBS+0.5% Triton X-100, washed again 3 times in PBS+2% BSA. After blocking 20 min in the same solution, the coverslips were placed in a humid chamber, overlaid with 75 μl of primary antibody against Integrase, and incubated for 2 h at 37° C. Coverslips were then rinced once with PBS and incubated with 75 μl of anti rabbit antibody diluted 1/10000 in PBS. After immobilisation on the cover using Prolong Gold antifade reagent, cellular localization of Integrase as well as FITC-labelled peptides was monitored by fluorescence microscopy, using a PL APO 1.4 oil PH3 objective on a LEICA DMRA 1999 microscope. […]
# HIV-1 integrase [3] = biological target: T2, HIV-1 integrase (Human immunodeficiency virus type 1 group M subtype B, UniProt P12497); assay: Integrase pull-down with CNBr Sepharose beads; format: binding; conditions: H9 or HeLa HA-IN cell lysates, western blotting
# T2 construct: expressed in transfected cells; host or cells: H9 cells with pNL4.3 V-R+; HeLa cells stably expressing HA-tagged IN
# Protocol: Peptides were resuspended in buffer A (1 mg/ml), sonicated 4 min, and incubated with 500 μl (gel volume) of activated CNBr-activated Sepharose 4B sepharose© beads at 4° C. overnight. After centrifugation, supernatants were removed and the beads were incubated with Glycine pH.8 for 2 hours at 4° C. with gentle stirring. The sedimented Sepharose beads were then washed in 0.1 M Sodium Acetate buffer (pH 4), 0.5 M Bicarbonate buffer, and finally in PBS, three times each. The peptides bound to the beads were then saturated for 30 minutes in PBS BSA 0.1% and then incubated for 1 h at 4° C. with equal amounts of cell lysate (H9 or Hela-IN) prealably lysed for 30 min on ice in Lysis buffer (Tris 20 mM, pH 7.2, NaCl 400 mM, EDTA 1 mM, DTT 1 mM, Protease inhibitors EDTA free (Roche Diagnostics) and sonicated twice for 5 sec. at 20%. Beads were washed once in Lysis buffer, and twice in PBS. They were finally resuspended in Laemli blue, migrated on 15% SDS-PAGE gels and analysed by Western Blotting.
# RT:p/t = biological target: T3, RT:p/t (Human immunodeficiency virus type 1 group M subtype B, UniProt P03366); assay: Steady-state fluorescence titration, PAW binding to RT:p/t; set-up: species or system HIV-1
# T3 construct: The heterodimeric p66/p51 RT was eluted with an imidazole gradient; p66 and p51 derived from p66 by proteolytic cleavage of the C-terminal RNAse H domain; made in house; host or cells: E. coli (M15 for the His-tagged subunits)
# Protocol: (§1) Fluorescence experiments were performed in buffer containing 50 mM Tris-HCl, pH 8.0, 50 mM KCl, 10 mM MgCl2 and 1 mM DTT, at 25° C., using a SPEX-PTI spectrofluorimeter in a 1 cm path-length quartz cuvette, with a band-pass of 2 nm for excitation and emission, respectively. Excitation was performed at 492 nm and emission spectra were recorded from 500 to 600 nm. According fluorescence experiments, a fixed concentration of FAM-labelled (19/36) p/t (50 nM) or of FITC-PAW (200 nM) was titrated with increasing protein concentrations from 5 nM to 1 μM. Data were fitted as described in Agopian et al. (2007) and Rittinger et al. (1995), using a quadratic equation (GraFit, Erithacus Software).
# HIV-1 p51 = biological target: T4, HIV-1 p51 (Human immunodeficiency virus type 1 group M subtype B, UniProt P03366); assay: Size exclusion chromatography of p51 dimerization; conditions: p51 3.5 μM, FITC-labelled PAW 20 μM, 1 h
# T4 construct: His; made in house; host or cells: E. coli M15
# Protocol: Chromatography was performed using one (Phenomenex 53000) or two HPLC columns in series (Phenomenex 53000 followed by Phenomenex 52000; both 7.5 mm×300 mm). Samples containing 3 to 10 μM of RT or p51 were applied onto one or two HLPC columns and eluted with 200 mM potassium phosphate (pH: 7.0) at a flow rate of 0.5 ml·min^−1 (5).
# heterodimeric RT = biological target: T5, heterodimeric RT (Human immunodeficiency virus type 1 group M subtype B, UniProt P03366); assay: Steady-state fluorescence titration of FITC-PAW with RT; set-up: species or system HIV-1; conditions: 200 nM FITC-PAW titrated with RT; read-out: dissociation constant (Kd), binding to heterodimeric RT
# T5 construct: The heterodimeric p66/p51 RT was eluted with an imidazole gradient; p66 and p51 derived from p66 by proteolytic cleavage of the C-terminal RNAse H domain; made in house; host or cells: E. coli (M15 for the His-tagged subunits)
# Protocol: as §1
# HIV-1 integrase [4] = biological target: T6, HIV-1 integrase (Human immunodeficiency virus type 1 group M subtype B, UniProt P04585); assay: IN 3′-processing activity, gel-electrophoresis procedure; format: biochemical; conditions: read-out: IC50 3′-proc
# T6 construct: Integrase is a 32 kDA viral protein that is biologically active under a multimeric form
# Protocol: In order to verify the influence of the fluorescent probe attached to PAW on the peptide-integrase interaction, a standard gel-electrophoresis procedure (as described in Smolov et al., 2006) was carried out to examine the IN 3′-processing activity as a function of either unlabeled or fluorescein-labeled PAW concentration.
# HIV-1 RT [5] = biological target: T1, HIV-1 RT; assay: biochemical
# Protocol: RNA-dependent-DNA RT-polymerase activity was measured in a standard reaction assay using poly(rA)-(dT)15 as template/primer as described in Restle et al. (1990). Ten microliters of reverse transcriptase (RT) at 20 nM was incubated at 37° C. for 30 min with 20 μL of reaction buffer (50 mM Tris, pH 8.0, 80 mM KCl, 6 mM MgCl2, 5 mM DTT, 0.15 μM poly(rA-dT), 15 μM dTTP, 0.3 μCi 3H-dTTP). For peptide evaluation, HIV-1 RT was incubated with increasing concentrations of peptide inhibitors for […], and polymerase reaction was initiated by adding reaction buffer. Reactions were stopped by precipitation of nucleic acids with 5 ml of 20% trichloroacetic acid (TCA) solution for 2 h on ice, then filtered using a multiwell-sample collector (Millipore), and washed with 5% TCA solution. Filters were dried at 55° C. for 30 min and radionucleotide incorporation was determined by liquid scintillation spectrometry.
# A series of peptides have been derived from Pep-A sequence (SEQ ID NO: 28), which is derived from HIV-1 reverse transcriptase. First, P1 peptide (SEQ ID NO: 1) was obtained by removing the N-terminal arginine of Pep-A. Then, additional peptides were generated by performing an alanine scan on P1. P1-derived peptides were evaluated using a standard polymerase RT assay. Reported data correspond to the mean of three separate experiments.
# HIV-1 RT [6] = biological target: T7, HIV-1 RT (Human immunodeficiency virus type 1 group M subtype B, UniProt P12497); assay: RT pull-down with peptide-CNBr Sepharose beads, H9 cell lysates; format: binding; conditions: Western blotting
# T7 construct: asymmetric heterodimer that consists of two subunits, p66 and p51; expressed in transfected cells; host or cells: H9 cells (ATCC HTB-176) stably transfected with pNL4.3 V-R+
# Protocol: For RT pull down experiments, PAW (SEQ ID NO: 18) was incubated with 500 μl of activated CNBr-activated Sepharose 4B beads at 4° C. overnight. After centrifugation, supernatants were removed and the beads were incubated with Glycine pH.8.0 for 2 hrs at 4° C. with gentle stirring. The beads were then washed with 0.1 M sodium acetate buffer (pH 4.0), then 0.5 M Bicarbonate buffer, and finally in PBS, three times each. The peptide bound to the beads were then saturated for 30 min in PBS/BSA 0.1% and then incubated for 1 h at 4° C. with equal amounts of H9 cells lysed for […] on ice in Lysis buffer (Tris 20 mM, pH 7.2, NaCl 400 mM, EDTA 1 mM, DTT 1 mM, Protease inhibitors EDTA free) and sonicated 2×5 sec. at 20%. Beads were washed with Lysis buffer then twice with PBS and the bound proteins were finally separated on 15% SDS-PAGE gel and analyzed by Western Blotting using monoclonal 8C4 anti-HIV-1 RT antibody.
substance,measurement,setting,value
GTKWLTEWIPLTAEAE-NH2 [PAW],toxic effect,[1],without any toxic effect
same,koff,HIV-1 RT [2],1.42 ± 0.007 s⁻¹
same,entry of free peptide into cells,HeLa cells,not able to enter cells alone
"Pep-7: decapeptide (SEQ ID NO: 32) mimicking p66/p51 interface that prevents reverse transcriptase-dimerization (KETWETWWTE; Pep-7 ; described in Morris et al., 1999, JBC, 274, 24941-24946)",interaction with IN in pull-down,HIV-1 integrase [3],does not bind IN
GTKWLTEWIPLTAEAEC-FITC [PAW-FITC],time to enter cells,HeLa cells; complexed with Pep-1 at 1/10 molar ratio,less than 1 h
same,entry of free peptide into cells,HeLa cells,poorly enters
same,lower Kd of labelled FITC-PAW over unlabelled peptide,RT:p/t,5.6 fold
same,Kd,"RT:p/t; FITC-PAW fluorescence quenching, read-out: Kd, FITC-PAW binding to RT first incubated with DNA/DNA p/t",0.0071 ± 0.0028 µM
same,increase of affinity for RT in the presence of p/t,RT:p/t; relative to RT without p/t,5 fold
same,p51 dimeric and associated to PAW,HIV-1 p51,4.6%
same,Kd,heterodimeric RT,0.033 ± 0.01 µM
same,IC50,HIV-1 integrase [4],10 µM
same,Ki,"HIV-1 RT [5]; Dixon plot, mean of three separate experiments, read-out: Ki (μM), inhibition of polymerase activity of HIV-1 RT",2.7 ± 0.7 µM
same,reduction of efficiency (higher Ki) relative to PAW,HIV-1 RT [5]; relative to PAW,3.8 fold
GTKALTAVIPLTEEAE [Peptide P8],"stable complex with RT, retention of RT on beads",HIV-1 RT [6],no RT was associated
same,entry of free peptide into cells,HeLa cells,not able to enter cells alone
same,Ki,HIV-1 RT [5],57 ± 19 µM
same,reduction of efficiency of the peptide in comparison to P1,HIV-1 RT [5]; relative to P1,8 fold
